# Patent publication US20180148470A1, “CHOLIC ACID DERIVATIVE, AND PREPARATION METHOD AND MEDICAL USE THEREOF” (Jiangsu Hansoh Pharmaceutical Group Co., Ltd., priority 2015, published 2018)
# Legend:
# FXR receptor = target: T1, FXR receptor (Homo sapiens, UniProt Q96RI1); assay: FXR receptor binding activity assay (TR-FRET; GST-FXR-LBD / SRC1 fragment); type: biochemical; conditions: FXR-LBD binding to SRC1 fragment, agonist rate
# T1 construct: Prepared 2× GST-labeled FXR-LBD/anti-GST Eu mixture to the required volume, the concentration of GST-FXR-LBD was 6 nM; purchased Life Technology Invitrogen PV4835
# T1 sequence (Q96RI1 262-486 limits assumed): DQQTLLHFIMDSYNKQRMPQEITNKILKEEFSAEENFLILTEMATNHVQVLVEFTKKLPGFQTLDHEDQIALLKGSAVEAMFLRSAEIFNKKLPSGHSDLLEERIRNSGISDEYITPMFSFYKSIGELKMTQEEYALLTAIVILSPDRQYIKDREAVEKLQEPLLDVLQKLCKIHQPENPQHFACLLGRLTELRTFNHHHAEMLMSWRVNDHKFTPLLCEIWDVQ
# T1 sequence (Q15788 676-700 partner limits assumed): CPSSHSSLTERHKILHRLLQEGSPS
# Text: FXR Receptor Binding Activity Assay (Time-Resolved Fluorescence Detection Method TR-FRET Method)
# To test the effect of the present compounds on FXR receptor binding, we selected the commercial FXR receptor binding activity assay kit to test the effect of the compounds on FXR and its binding protein fragments (LBD structural domain binds to SRC1 fragment) (kit supplier: Life Technology Invitrogen Catalog: PV4835; cisbio Catalog: 610SAXLA and 61GSTKLA). Specific method was described in the kit instructions. The operation was as follows:
# 1. Prepared 2× GST-labeled FXR-LBD/anti-GST Eu mixture to the required volume, the concentration of GST-FXR-LBD was 6 nM, Eu was 50 nL/well.
# 2. Prepared 2× biotin-labeled SRC1/[…] (SA-APC) mixture to the required volume, the concentration of SRC1 was 1000 nM, and […] was 50 nL/well.
# 3. 2× GST-FXR/Eu and SRC1/SA-APC were mixed in a proportion of 1:1.
# 4. 20 μL of a mixture of GST-FXR/Eu and SRC1/SA-APC was added to a 384-well plate containing the compounds to be tested.
# 5. Centrifuged for 1 minute at 1000 rpm; incubated for 180 minutes at room temperature.
# 6. Time-resolved fluorescence detection: EnVision reader.
# (1) the value at 665 nm divided by the value at 615 nm;
# (2) calculating the agonist rate
# Agonist rate=(X−Min)/(Max−Min)*100% • X represents the 665/615 value for each concentration; • Min represents the 665/615 value without adding compound; • Max represents the 665/615 value of the reference compound.
# FXR = target: T2, FXR (Homo sapiens, UniProt Q96RI1); assay: FXR reporter gene expression test (dual luciferase, FXR Gal4 reporter in HepG2 cells); type: cell-based; conditions: HepG2 cells transiently transfected with FXR Gal4 reporter, 18 hours
# T2 sequence (Q96RI1 262-486 limits assumed): T1 sequence (Q96RI1 262-486 limits assumed)
# Text: FXR Reporter Gene Expression Test
# To analyze the effect of testing compounds on FXR-regulated gene expression, we used Promega's dual luciferase assay system (Promega #E1980) to detect the effect of the compounds on the FXR reporter gene in HepG2 hepatoma cell line (ATCC #HB-8065), which was transiently transfected with the FXR Gal4 reporter gene fragment. Specific experimental methods are as follows:
# 1. HepG2 Cell Culture and Maintenance
# Cells were digested and cells with appropriate density were grown in 10 mL complete medium and then cultivated for 24 hours under 37° C., 5% CO2 humidity conditions.
# 2. Cell planting and transfection. Transfection reagent was Fugene HD (Promega#E231A)
# (1) The transfection mixture was prepared according to the following table
# (2) The mixture in the tube was vigorously mixed and incubated at room temperature for 15 minutes;
# (3) The cells were digested in the culture dish and counted;
# (4) The cell suspension was diluted to the desired volume of 600,000/mL (96-well plates 100 μL/well);
# (5) The required volume of the transfection mixture was added to the cell suspension, followed by plating at 100 μL/well;
# (6) Incubated for 24 hours under 37° C., 5% CO2 humidity conditions.
# 3. Treatment of the Compound
# (1) 10 mM of mother liquor of the compound was prepared and then serially diluted 3 times with DMSO;
# (2) 10 μL of compound was added to 90 μL of complete medium (10×);
# (3) 5 μL of the solution of the compound (21×) was added to each well;
# (4) Incubated for 18 hours under 37° C., 5% CO2 humidity conditions.
# The firefly luciferase and the renilla luciferase signal (Promega #E1980) were detected by Promega's dual-luciferase assay system.
# (2) Calculating the agonist rate
# Agonist rate=(X−Min)/(Max−Min)*100% • X represents the F/R value of each concentration; • Min represents the F/R value without adding compound; • Max represents the F/R value of the reference compound.
# (3) EC50 was calculated according to GraphPrism 5.0
SMILES,EC50 (FXR receptor) [nM],EC50 (FXR) [nM]
"CC[C@H]1[C@@H](O)C2C3CCC([C@H](C)CCc4nnc[nH]4)[C@@]3(C)CCC2[C@@]2(C)CC[C@@H](O)C[C@@H]12 (stereo partly drawn) [Example 11, (3R,5S,6R,7R,10S,13R)-17-((R)-4-(4H-1,2,4-triazol-3-yl)butan-2-yl)-6-ethyl-10,13-dimethylhexadecahydro-1H-cyclopenta[a] phenanthrene-3,7-diphenol]",366,5200
"CC[C@H]1[C@@H](O)C2C3CCC([C@H](C)CCc4noc(=O)[nH]4)[C@@]3(C)CCC2[C@@]2(C)CC[C@@H](O)C[C@@H]12 (stereo partly drawn) [Example 12, 3-((3R)-3-((3R, 5S, 6R, 7R, 10S, 13R)-6-ethyl-3,7-dihydroxy-10,13-dimethylhexadecahydro-1H-cyclopenta[a]phenanthrene-17-yl)butyl)-1,2,4-oxadiazol-5(4H)-one]",52,1360
"CC[C@H]1[C@@H](O)C2C3CCC([C@H](C)CCc4n[nH]c(=O)o4)[C@@]3(C)CCC2[C@@]2(C)CC[C@@H](O)C[C@@H]12 (stereo partly drawn) [Example 10, 5-((3R)-3-((3R,5S,6R,7R,10S,13R)-6-ethyl-3,7-dihydroxy-10,13-dimethylhexadecane-1H-cyclopenta[a]phenanthrene-17-yl)butyl)-1,3,4-oxadiazol-2 (3H) -one]",61,1400
"CC[C@@H]1[C@@H]2[C@@H](F)[C@H](O)CC[C@]2(C)C2CC[C@@]3(C)C(CCC3[C@H](C)CCC(=O)O)C2[C@@H]1O (stereo partly drawn) [Example 1, (4R)-4-((3R, 4R, 5S, 6R, 7R, 10R, 13R)-6-ethyl-4-fluoro-3,7-dihydroxy-10,13-dimethylhexadecahydro-1H-cyclopenta[a]phenanthrene-17-yl)pentanoic acid]",214,2600
"CC[C@H]1[C@@H](O)C2C3CCC([C@H](C)CCC(=O)NOC)[C@@]3(C)CCC2[C@@]2(C)CC[C@@H](O)C[C@@H]12 (stereo partly drawn) [Example 4, (4R)-4-((3R,5S,6R,7R,10S,13R)-6-ethyl-3,7-dihydroxy-10,13-dimethylhexadecahydro-1H-cyclopenta[a]phenanthrene-17-yl)-N-methoxypentanamide]",54,1060
"CC[C@H]1[C@@H](O)C2C3CCC([C@H](C)CC4SC(=O)NC4=O)[C@@]3(C)CCC2[C@@]2(C)CC[C@@H](O)C[C@@H]12 (single isomer, unassigned) [Example 14-α]",13,63
"CC[C@H]1[C@@H](O)C2C3CCC([C@H](C)CCC(=O)NOCCO)[C@@]3(C)CCC2[C@@]2(C)CC[C@@H](O)C[C@@H]12 (stereo partly drawn) [Example 8, (4R)-4-((3R, 5S, 6R, 7R, 10S, 13R)-6-ethyl-3,7-dihydroxy-10,13-dimethylhexadecahydro-1H-cyclopenta[a]phenanthrene-17-yl)-N-(2-hydroxyethoxy)pentanamide]",228,3370

# The remaining lines, values ahead:
EC50 (FXR receptor) [nM],EC50 (FXR) [nM],SMILES
1270,,"CC[C@H]1[C@@H](O)C2C3CCC([C@H](C)CCC(=O)NCP(=O)(O)O)[C@@]3(C)CCC2[C@@]2(C)CC[C@@H](O)C[C@@H]12 (stereo partly drawn) [Example 6, (((4R)-4-((3R,5S,6R,7R,10S,13R)-6-ethyl-3,7-dihydroxy-10,13-dimethylhexadecahydro-1H-cyclopenta[a]phenanthrene-17-yl)pentanoylamino)methyl)phosphonic acid]"
552,,"CC[C@H]1[C@@H](O)C2C3CCC([C@H](C)CCC(=O)NCCP(=O)(O)O)[C@@]3(C)CCC2[C@@]2(C)CC[C@@H](O)C[C@@H]12 (stereo partly drawn) [Example 7, (2-((4R)-4-((3R,5 S,6R,7R,10S,13R)-6-ethyl-3,7-dihydroxy-10,13-dimethylhexadecahydro-1H-cyclopenta[a]phenanthrene-17-yl)pentanoylamino)ethyl) phosphonic acid]"
31,,"CC[C@H]1[C@@H](O)C2C3CCC([C@H](C)CCC(=O)NCS(=O)(=O)O)[C@@]3(C)CCC2[C@@]2(C)CC[C@@H](O)C[C@@H]12 (stereo partly drawn) [Example 5, ((4R)-4-((3R,5S,6R,7R,10S,13R)-6-ethyl-3,7-dihydroxy-10,13-dimethylhexadecahydro-1H-cyclopenta[a]phenanthrene-17-yl)pentanoylamino) methanesulfonic acid]"
16,2530,"CC[C@H]1[C@@H](O)C2C3CCC([C@H](C)CCC(=O)NC#N)[C@@]3(C)CCC2[C@@]2(C)CC[C@@H](O)C[C@@H]12 (stereo partly drawn) [Example 3, (4R)-N-cyano-4-((3R, 5S, 6R, 7R, 10S, 13R)-6-ethyl-3,7-dihydroxy-10,13-dimethylhexadecahydro-1H-cyclopenta[a]phenanthrene-17-yl)pentanamide]"
143,,"C[C@H](CC1SC(=O)NC1=O)C1CCC2C3C(CC[C@@]21C)[C@@]1(C)CC[C@@H](O)C[C@H]1C[C@H]3O (stereo partly drawn) [Example 15-α, 5-((2R)-2-((3R,5 S,7R,10S,13R)-3,7-dihydroxy-10,13-dimethylhexadecahydro-1H-cyclopenta[a]phenanthrene-17-yl)propyl)thiazolidine-2,4-dione]"
167,3390,"CC[C@H]1[C@@H](O)C2C3CCC([C@H](C)CCC(=O)NO)[C@@]3(C)CCC2[C@@]2(C)CC[C@@H](O)C[C@@H]12 (stereo partly drawn) [Example 2, (4R)-4-((3R,5S,6R,7R,10S,13R)-6-ethyl-3,7-dihydroxy-10,13-dimethylhexadecahydro-1H-cyclopenta[a]phenanthrene-17-yl)-N-hydroxypentanamide]"
283,5200,"CC[C@H]1[C@@H](O)C2C3CCC([C@H](C)CCc4nnc(C(=O)O)o4)[C@@]3(C)CCC2[C@@]2(C)CC[C@@H](O)C[C@@H]12 (stereo partly drawn) [Example 13, 5-((3R)-3-((3R, 5S, 6R, 7R, 10S,13R)-6-ethyl-3,7-dihydroxy-10,13-dimethylhexadecahydro-1H-cyclopenta[a]phenanthrene-17-yl)butyl) -1,3,4-oxadiazole-2-carboxylic acid]"
312,3370,"C[C@H](CC1SC(=O)NC1=O)C1CCC2C3C(CC[C@@]21C)[C@@]1(C)CC[C@@H](O)C[C@H]1C[C@H]3O (stereo partly drawn) [Example 15-β, 5-((2R)-2-((3R,5 S,7R,10S,13R)-3,7-dihydroxy-10,13-dimethylhexadecahydro-1H-cyclopenta[a]phenanthrene-17-yl)propyl)thiazolidine-2,4-dione]"
70,,CCOC(=O)c1nnc(CC[C@@H](C)C2CCC3C4C(CC[C@@]32C)[C@@]2(C)CC[C@@H](O)C[C@H]2[C@@H](CC)[C@H]4O)o1 (stereo partly drawn) [Example 13-ii]
